In article PMC10115881, “Disrupting the α-synuclein-ESCRT interaction with a peptide inhibitor mitigates neurodegeneration in preclinical models of Parkinson’s disease” (Nature Communications, 2023):
No end group written: not given here. *: point of attachment. FITC = O=C1OC2(c3ccc(O)cc3Oc3cc(O)ccc32)c2ccc(NC(=S)*)cc21

T1: purified VPS4B (Vacuolar Protein Sorting 4) (UniProt O75351 1-444)
T1 chain: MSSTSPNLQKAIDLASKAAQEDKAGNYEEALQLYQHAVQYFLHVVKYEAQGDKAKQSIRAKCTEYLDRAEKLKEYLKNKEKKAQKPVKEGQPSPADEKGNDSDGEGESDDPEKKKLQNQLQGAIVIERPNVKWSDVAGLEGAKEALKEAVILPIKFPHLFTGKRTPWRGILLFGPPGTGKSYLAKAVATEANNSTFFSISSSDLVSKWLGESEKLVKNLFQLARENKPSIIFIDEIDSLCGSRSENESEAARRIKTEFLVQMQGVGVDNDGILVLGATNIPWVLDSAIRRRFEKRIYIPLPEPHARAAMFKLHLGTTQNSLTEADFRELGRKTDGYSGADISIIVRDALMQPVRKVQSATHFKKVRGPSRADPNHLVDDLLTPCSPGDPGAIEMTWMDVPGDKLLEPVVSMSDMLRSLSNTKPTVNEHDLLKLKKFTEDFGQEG

T2: purified VPS4B (Vacuolar Protein Sorting 4) (UniProt O75351 1-444)
T2 construct: VPS4B expressed as a His-tagged Sumo construct in a pRSet B vector; The results speak of 'VPS4'; VPS4B is the only VPS4 protein whose purification is described; source: E. coli Overexpress C41, purified (Ni-NTA)
T2 sequence (looked up): T1 chain

B1: FITC-labeled PDpep1.3 peptide (peptide)
peptide: {FITC}-DEEIERQLKALG
notes: stretch of the C-terminal region (MIM) of CHMP2B; also called FITC-PDpep1.3; source: synthetic peptide (LifeTein)

What was measured:
[1] = system: A53T a-syn expressing HEK293 cells; assay: Cell Titer-Glo cell viability, A53T a-syn expressing cells; type: cell-based, human; conditions: A53T a-syn cells
Experimental: Oligonucleotides encoding the specific peptides were synthesized and individually cloned into the pLJM1 nGFP lentiviral vector. HEK293T cells were infected with individual constructs, and cell viability was assessed using Cell Titer-Glo luminescent assay (Promega) at 72 h post infection.
Cells were trypsinized from subconfluent cultures as described earlier, suspended in culture media, and then seeded into triplicate wells of a 96-well plate (100 µl/well) at a density of 1.5 × 10^4 cells per well with standard culture conditions of 5% CO2 at 37 °C. Cells were infected with lentivirus expressing peptide at a MOI of 5 for 72 h or transfected with plasmid for 72 h. Cell Titer-Glo reagent was added to each well (30 µL), according to the manufacturer’s protocol and […].

[2] = system: A53T a-syn; assay: A53T a-syn protein level in HEK293 cells by immunoblot; type: cell-based, human
Experimental: Infected or transfected cells were scraped from six-well dishes and lysed with lysis buffer (50 mM Tris-HCl pH 7.4, 1% Nonidet P-40, 150 mM NaCl, 1 mM EDTA, 1× protease inhibitor mixture (Sigma)) for 30 min at 4 °C. The insoluble pellet was removed following a 10,000 rpm spin for 5 min at 4 °C. Lysates were analyzed by SDS-PAGE/immunoblot using 4–20% Mini-PROTEAN Tris-glycine gels (Bio-Rad), transferred to polyvinylidene fluoride (PVDF) membranes, and blocked in 5% milk containing PBS-Tween-20 (0.1%) for 1 h. PVDF membranes were then incubated with specified primary antibodies followed by incubation with horseradish peroxidase-conjugated secondary antibodies (anti-mouse HRP-linked, Cell Signaling, catalog #7076, 1:5000; anti-rabbit HRP-linked, Cell Signaling, catalog #7074, 1:5000) and detected using enhanced chemiluminescence (GE Healthcare). Anti-a-syn antibody (clone 42) was obtained from BD Biosciences (catalog #610787, 1:1000). Anti-LAMP1 antibody was obtained from Abcam (catalog #ab24170, 1:500). Anti-beta-actin antibody was obtained from Cell Signaling (13E5) (catalog #4970, 1:1000). Anti-CD63 antibody was obtained from R&D Systems (catalog #MAB50482-SP, 1:1000).

[3] = target: VPS4; conditions: motif-domain interaction; read-out: CHMP2B-VPS4 interaction affinity; cited from earlier work
Text: CHMP2B has been reported to bind to Vacuolar Protein Sorting 4 (VPS4), an AAA-type adenosine triphosphatase. This interaction is mediated by the C-terminal MIM on CHMP2B and a Microtubule Interacting and Trafficking (MIT) domain on VPS4. […] However, we also noted that many CHMP proteins can self-interact and have been reported to multimerize, which may contribute to their function. In particular, CHMP2B can self-interact[30] and is thought to polymerize at the budding of membranes during endosome formation. ...

[4] = target: T1, purified VPS4B (Vacuolar Protein …); assay: FP
[5] = target: T2, purified VPS4B (Vacuolar Protein …); assay: not stated; 'our affinity measurements' of PDpep1.3 with VPS4 (Fig. S1G); conditions: both partners purified
[6] = target: T3, purified recombinant CHMP2B (UniProt Q9UQN3 1-213); assay: fluorescence polarisation; FITC-peptide constant at 50 nM, CHMP2B serially diluted 1:1 from 30 μM; 50 mM Na phosphate pH 5.5 or 20 mM Na acetate pH 5.5, 0.5 mM TCEP, 0.005% Triton-X-100; 30 min at room temperature; conditions: both partners purified
T3 construct: CHMP2B from the vector pET-DEST42 CHMP2B; eluted as a 26 kDa monomer; Removal of tags is not described; source: E. coli Overexpress C41, inclusion bodies, purified (Ni-NTA in guanidine HCl, dialysis, SEC)
T3 sequence (Q9UQN3 whole entry): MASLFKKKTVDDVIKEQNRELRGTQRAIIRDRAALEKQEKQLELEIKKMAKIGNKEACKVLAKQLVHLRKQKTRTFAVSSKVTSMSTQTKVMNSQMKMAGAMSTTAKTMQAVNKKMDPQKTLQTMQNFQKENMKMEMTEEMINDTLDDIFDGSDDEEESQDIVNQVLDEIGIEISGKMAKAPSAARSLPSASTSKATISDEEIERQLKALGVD

Molecule	Effect on cell survival/viability [1]	Effect on A53T a-syn protein level [2]	Kd [3] [µM]	Kd [4] [µM]	Kd [5] [µM]	Kd [6] [µM]
CHMP2B: CHarged Multivesicular body Protein 2B, full-length	rescues a-syn cytotoxicity	reduces a-syn levels	178			
B1				~200	> 100	1.8
